| Structure (SMILES) | melting point [°C] |
| --- | --- |
| COc1cccc2c1OC1C3CCC4(C(=O)N(CC5CC5)CCC214)C(C(C)(O)C(C)(C)C)C3 (configuration not stated) | 205 to 206 |
| N#Cc1nn(-c2c(Cl)cc(C(F)(F)F)cc2Cl)c(I)c1SC(F)(F)F | 187 to 188 |
| CC12CCC3C(CCC4CC(O[Si](c5ccccc5)(c5ccccc5)C(C)(C)C)CCC43C)C1CCC2C=C(Br)Br (configuration not stated) | 69 to 71 |
| Nc1ccc2c3c(cccc13)C(=O)N([C@@H]1CN3CCC1CC3)C2=O | 305 to 308 |
| COc1ccccc1CN1CCC(=O)C(C(c2ccccc2)c2ccc(F)cc2)C1 (configuration not stated) | 115 to 116 |
| CCOC(=O)C1CCC(=C(C#N)C(=O)c2ccc(Cl)cc2)N1 (configuration not stated) | 108 to 110 |
| O=C(O)C(C1CC(=O)N(C(=O)OCC(Cl)(Cl)Cl)O1)N1C(=O)c2ccccc2C1=O (configuration not stated) | 208 to 210 |
| N#CNC(=NC1CCN(Cc2ccccc2)CC1)NC1Cc2ccccc2C1 | 138 to 140 |
| CCCOc1ccc(-c2ncc(C#N)cn2)cc1 | 193 to 194 |
| CC1(C)[C@H](/C=C/Cl)[C@@H]1C(=O)O (relative stereo) | 103 to 105 |
| O=S(=O)(N=Cc1cccnc1)c1ccccc1 | 123 |
| CC(C)(C)c1cc(CCC(=O)NCCNCCNCCNC(=O)CCc2cc(C(C)(C)C)c(O)c(C(C)(C)C)c2)cc(C(C)(C)C)c1O | 80 to 110 |
| O=C1CC2(c3ccccc3)CCCC=C2C(=O)N1 (configuration not stated) | 241 to 243 |
| O=C1NC(=O)c2ccccc2/C1=C/Nc1ccc(N2CCOCC2)cc1 | 257 to 258 |
| OC1CSC(Oc2ccc(-c3ccc(C(F)(F)F)cc3)nc2)C(O)C1O (configuration not stated) | 194 to 195 |
| CC(C)(C)OC(=O)N[C@@H](COS(C)(=O)=O)c1ccccc1 | 108 to 109 |
| OCc1ccc(-c2cncc(OC3SCC(O)C(O)C3O)c2)cc1 (configuration not stated) | 153 |
| O=S(Cc1cc(OCc2ccc(C(F)(F)F)cc2)ccn1)c1nc2cscc2[nH]1 (configuration not stated) | 149 |
| CCOC(=S)c1[nH]c(C)nc1C(C)(C)O | 128 to 129 |
| O=C(CCSC(=O)c1ccccc1)N[C@@H](Cc1ccccc1)C(=O)O | 123 to 124 |

| Structure (SMILES) | melting point [°C] |
| --- | --- |
| CCOC(=O)c1ccccc1N(CC(=O)N(C)c1ccccc1)C(=O)C(F)(F)F | 95 |
| CCOC(=O)CCCCCc1c(O)c2cccnc2n(-c2ccccc2)c1=O | 167 to 168 |
| NC(=O)[C@H](Cc1cccnc1)NC(=O)OCc1ccccc1 | 153 |
| CN1C2=CC=CN(CCc3ccc(OCc4ccccc4)cc3)C2=Nc2ccccc2S1(=O)=O | 133 to 134 |
| CC(=O)OC1=CC=C2CC3N4CCC25C1OC1C(=O)CCC3(OC4)C15 (configuration not stated) | 179 to 182 |
| Cn1cc(-c2cc(Cl)cc(Cl)c2)c(=O)c(-c2cccc(C(F)(F)F)c2)c1 | 156 to 160 |
| CC(C)CC(Sc1c(Cl)cccc1Cl)c1c(O)cc(-c2ccccc2)oc1=O (configuration not stated) | 158 to 162 |
| OCc1cnoc1-c1ccc(F)cc1F | 60 to 61 |
| Nc1nc2ccccc2c2c1ncn2CCCCNC(=O)[C@@H]1C[C@H]1c1ccccc1 (relative stereo) | 77 |
| COc1ccc(S(=O)(=O)C2(C(=O)O)CCN(Cc3ccc(-c4ccccc4)cc3)CC2)cc1 | 168 |
| FCCOc1ccc(COCOc2ccc(Cl)cc2)cc1 | 60.7 to 61.6 |
| Cc1c(S(=O)(=O)Nc2ccc3[nH]cc(CCN(C)C)c3c2)sc2ccc(Cl)cc12 | 226 to 227 |
| Cc1c(Cl)cc(C(C)(C)C)c(O)c1-c1nc2cc(S(=O)(=O)C(F)(F)F)ccc2[nH]1 | 174 to 176 |
| NS(=O)(=O)c1ccc(NC(=O)Nc2ccccc2-c2ccccc2)cc1 | 229 to 231 |
| Cc1c(Cl)c(Cl)c(Cl)c(Cl)c1C=O | 187 to 194 |
| COc1ccnc(CCc2nc3cccnc3n2-c2ccc(OCc3ccccc3)c(F)c2)c1 | 168 to 170 |
| CC12CCC(C(=O)O)=CC1=CCC1C2CCC2(C)C(C(=O)c3ccc(O)cc3)CCC12 (configuration not stated) | 295 |
| CCCN(CCC)CC1CCCCN1CCNC(=O)N1c2ccccc2C(=O)Nc2cccc(Cl)c21 (configuration not stated) | 71 to 78 |
| O=C(O)CCc1oc(-n2ccnc2CO)nc1-c1ccc(Cl)cc1 | 171 to 173 |
| O=C(c1ccc(Nc2ccnc3cc(C(F)(F)F)ccc23)cc1)N1CCN(S(=O)(=O)c2ccc(Cl)cc2)CC1 | 234 to 236 |

| Structure (SMILES) | melting point [°C] |
| --- | --- |
| Cc1oc(-c2ccco2)nc1COc1ccc(CCl)cc1Cl | 103 to 104 |
| COc1ccc(C2Sc3cccc4cccc(c34)N(CCN(C)C)C(=O)C2O)cc1 (configuration not stated) | 121 to 122 |
| CCCCCCCCCCCCCCCCCCOc1cccc(C(=O)OC)c1OCCCOc1ccc(OCc2ccccc2)cc1 | 43 to 45 |
| COc1ccc2c(c1)C1=C(SCC3(CCN(C(=O)c4cccc(Cl)c4)CC3)O1)C(=O)C2=O | 125 to 127 |
| CS(=O)(=O)c1ccc(S(=O)(=O)N2CCCC(c3ccc(Cl)c(Cl)c3)=N2)cc1 | 181 to 183 |
| Cc1cccc(C)c1N1CCCN(c2c(C)cccc2C)C1=N | 68 to 71 |
| CCC(CC)(CC(=O)Nc1cccc(SCc2ccc3cc(F)ccc3n2)c1)C(=O)O | 117 to 120 |
| CC(=O)NCC1CN(c2ccc(N3CCN(C(=O)CCC(=O)c4ccc(CN5CCOCC5)cc4)CC3)c(F)c2)C(=O)O1 (configuration not stated) | 178 to 179 |
| CN(O)C(=O)Cc1ccccc1Nc1c(Cl)cccc1Cl | 135 to 138 |
| Cn1nc(N2CCNCC2)c2ccccc21 | 100 to 102 |
| CC(=O)C(C#N)c1ccccc1 (configuration not stated) | > 215 |
| O=c1[nH]c2ccc(F)c(F)c2c(=O)o1 | > 240 |
| CCCCCCc1cc2c(s1)NC(=O)C(C)N=C2c1ccccc1C (configuration not stated) | 173 to 175 |
| CC(C)SC1NC(=O)C1NC(=O)COc1ccccc1 (configuration not stated) | 128 to 130 |
| COc1c(CCc2ccc(NS(C)(=O)=O)cc2)cc(N2CCC(=O)NC2=O)cc1C(C)(C)C | 233 to 234 |
| CCCCCC(O)CCCN(CCCCCCC(=O)O)C(N)=O (configuration not stated) | 75 to 76 |
| CN(C)C1CCc2[nH]c3cccc(Cl)c3c2C1 (configuration not stated) | 212 to 214 |
| C=CCC1=C(C)C(O)CC1=O (configuration not stated) | 130 to 132 |
| COC(=O)C1=C(C(=O)OC)C2(c3ccc(Cl)cc3)CCC1O2 (configuration not stated) | 90 to 91 |
| Cc1c(C)c2c(c(C)c1N)CC(C)(CN1C(=O)c3ccccc3C1=O)O2 (configuration not stated) | 147 to 150 |

Further lines, results first:

| melting point [°C] | Structure (SMILES) |
| --- | --- |
| 49 to 50 | CCCc1ccccc1OCCCCCOc1coc(C(=O)OC)cc1=O |
| 122 to 125 | COC(=O)c1ccc2c(Br)nn(C)c2c1 |
| 266 | CCc1ccc2[nH]c3cnn(C)c3c(=O)c2c1 |
| 76 | CCOC(=O)c1ccc(N(CC)CCc2ccccc2OCc2ccccc2)cc1 |
| 35 to 36 | Cc1ccc(SCC(=O)O)o1 |
| 162 to 164 | COc1cc(C(=O)NCC2NC(C)Cc3ccccc32)cc(OC)c1OC (configuration not stated) |
| 182 to 183 | Cc1nn(-c2ccccn2)c(-c2ccccc2)c1CC(=O)O |
| 133 to 135 | COc1cc(N2CCN(C(=O)Cn3nc(C4=NCCN4)c4cccnc43)CC2)ccc1Cl |
| 157 | Cc1cc(C)nc(N(C(=O)n2cncn2)c2ccccc2)n1 |
| 230 | CCOc1cc(N)c([N+](=O)[O-])cc1C(=O)O |
| 140 to 145 | COc1ccc(-c2ccc3[nH]c4c(c3c2)CCN(C(=O)c2ccccc2)CC4)cc1 |
| 258 to 259 | O=C(c1ccccc1)c1c(O)c2cc(Cl)cc(Cl)c2[nH]c1=O |
| 252 to 255 | O=c1[nH]cnc2ccc(F)cc12 |
| 115 to 117 | N#CC1CCc2c(OCCn3ccnc3)cccc21 (configuration not stated) |
| 180 to 181 | CCCn1c(COCC)nc2c(N)nc3ccc(OC4CCN(C(=O)OC(C)(C)C)CC4)cc3c21 |
| 132 to 133 | CC(C(=O)NO)S(=O)Cc1ccc(Cl)cc1 (configuration not stated) |
| 129 to 132 | CC(C)(C)OC(=O)NCCc1c[nH]c2ccc(C#N)cc12 |
| 180 | Cn1c(Cl)c(C=C(C#N)S(C)(=O)=O)c2ccccc21 |
| 291 to 292 | O=C(O)c1ccc(Cn2cnc3ccc(Cl)c(C(=O)O)c32)cc1 |
| 130 to 136 | CNC1=NN(C(=O)c2ccccc2)C(C)(C)S1 |
| 125 to 126 | CCOC(=O)C1=CC2(CCC1S(=O)(=O)Nc1ccc(F)cc1Cl)CC2 (configuration not stated) |

| melting point [°C] | Structure (SMILES) |
| --- | --- |
| 245 to 247 | NC(=O)C1(c2cccc(Br)c2)CCOCC1 |
| 173 to 175 | COc1cccc(-c2cnc3[nH]cc(C(=O)C4(C)CCCCC4)c3n2)c1 |
| 227 to 228 | O=C(Nc1ccc(-c2nc3ccccc3s2)cc1)c1ccccc1 |
| 258 | Cc1cc2[nH]c(=O)ccc(=O)c2cc1C |
| 85 to 86 | CC(C)c1cccc(C(C)C)c1NC(=O)CSCCCCCCCCCBr |
| 136 to 138 | CC#Cc1ccc(NC(=O)c2cccnc2Cl)cc1 |
| 98 to 99 | CC(C)Cc1cc(=O)c2cc(OCCCCCN3CCC(O)CC3)ccc2o1 |
| 147 to 148 | CCOC(=O)c1cc(-n2c(=O)ccn(C)c2=O)ccc1Cl |
| 165 to 166 | CC(=O)c1ccc(S(=O)(=O)Nc2ccon2)cc1 |
| 180 to 182 | COc1ccc(OC)c(C(=O)c2cccc(OC)c2C(=O)O)c1 |
| 160 to 162 | Cc1cc(NNC(=O)OC(C)(C)C)nnc1-c1cccc([N+](=O)[O-])c1 |
| 185 to 187 | CN(C)c1c(Br)cc2c3c(cccc13)C(=O)N(O)C2=O |
| 99 to 102 | COC(C)c1ccc(C(=O)O)cc1 (single isomer, unassigned; (+)) |
| 94.5 to 95.5 | COc1cc(NC(=O)OC(C)(C)C)c(Cl)c(OC)c1 |
| 87 to 90 | COCCOc1cc2ncc(C#N)c(NC3CCCC3)c2cc1OC |
| 66 to 68 | CCOC(=O)CC(=O)c1csc(-c2ccccc2)n1 |
| 274 to 275 | Cn1cc(-c2ccc(C(=O)O)cc2)cn1 |
| 136 to 138 | CC(=O)NCC1CN(c2cccc(Cl)n2)C1 |
| 120 to 121 | COc1cc(CO)cc2c(Br)ccc(OC(C)C)c12 |
| 283 to 284 | CNc1cccc(-c2ccc(C(=O)O)c(=O)[nH]2)c1 |
| 135 | Cc1ccc2c(=O)nc(-c3cccc(CCC(=O)OC(C)(C)C)n3)sc2c1 |

Reference: a melting point compilation (Tetko et al.; mined from patent text by program, amines drawn as free bases though some values may be those of a salt)
